From ChEMBL document CHEMBL5223126, “Development of selective FGFR1 degraders using a Rapid synthesis of proteolysis targeting Chimera (Rapid-TAC) platform” (Bioorg Med Chem Lett, 2022)
Each block holds one molecule with its values, some of them ahead of it. The source made the active and inactive calls. The calls are words filed in the database; no cut-off is given here.

Assays:
[1] = target: von Hippel-Lindau disease tumor suppressor/Fibroblast growth factor receptor 1 (Homo sapiens) (UniProt P11362+P40337); test: PROTAC activity at FGFR1/VHL in human MCF7 cells assessed as FGFR1 degradation at 100 nM incubated for 6 hrs by Western blot analysis; format: cell-based
[2] = target: T1, Protein cereblon/Fibroblast growth factor receptor 1 (Homo sapiens) (UniProt P11362+Q96SW2); test: PROTAC activity at FGFR1/CRBN in human MCF7 cells assessed as FGFR1 degradation at 100 nM incubated for 6 hrs by Western blot analysis; format: cell-based
[3] = tested on: NCI-H1581; test: Antiproliferative activity against human NCI-H1581 cells assessed as inhibition of cell growth incubated for 120 hrs by MTT assay; format: functional, cell-based; conditions: NCI-H1581, 120 h
[4] = tested on: DMS-114; test: Antiproliferative activity against human DMS-114 cells assessed as inhibition of cell growth incubated for 120 hrs by MTT assay; format: functional, cell-based; conditions: DMS-114, 120 h
[5] = target: T1, Protein cereblon/Fibroblast growth factor receptor 1 (Homo sapiens); test: PROTAC activity at FGFR1/CRBN in human MCF7 cells assessed as FGFR1 degradation at 0.1 to 10 uM incubated for 6 hrs by Western blot analysis; format: cell-based; conditions: dose 0.1-10 µM
[6] = target: Protein cereblon/Fibroblast growth factor receptor 2 (Homo sapiens) (UniProt P21802+Q96SW2); test: PROTAC activity at FGFR2/CRBN in human MCF7 cells assessed as FGFR2 degradation at 0.1 to 10 uM incubated for 6 hrs by Western blot analysis; format: cell-based; conditions: dose 0.1-10 µM
[7] = target: Protein cereblon/Fibroblast growth factor receptor 4 (Homo sapiens) (UniProt P22455+Q96SW2); test: PROTAC activity at FGFR4/CRBN in human MCF7 cells assessed as FGFR4 degradation at 0.1 to 10 uM incubated for 6 hrs by Western blot analysis; format: cell-based; conditions: dose 0.1-10 µM
[8] = target: Protein cereblon/Fibroblast growth factor receptor 3 (Homo sapiens) (UniProt P22607+Q96SW2); test: PROTAC activity at FGFR3/CRBN in human MCF7 cells assessed as FGFR3 degradation at 0.1 to 10 uM incubated for 6 hrs by Western blot analysis; format: cell-based; conditions: dose 0.1-10 µM
[9] = target: T1, Protein cereblon/Fibroblast growth factor receptor 1 (Homo sapiens); test: PROTAC activity at FGFR1/CRBN in human DMS-114 cells assessed as FGFR1 degradation at 0.1 to 10 uM incubated for 6 hrs by Western blot analysis; format: cell-based; conditions: dose 0.1-10 µM
[10] = target: T1, Protein cereblon/Fibroblast growth factor receptor 1 (Homo sapiens); test: PROTAC activity at FGFR1/CRBN in human NCI-H1581 cells assessed as FGFR1 degradation at 0.1 to 10 uM incubated for 6 hrs by Western blot analysis; format: cell-based; conditions: dose 0.1-10 µM

von Hippel-Lindau disease tumor suppressor/Fibroblast growth factor receptor 1 (Homo sapiens), sequence (P11362 22-822 limits assumed): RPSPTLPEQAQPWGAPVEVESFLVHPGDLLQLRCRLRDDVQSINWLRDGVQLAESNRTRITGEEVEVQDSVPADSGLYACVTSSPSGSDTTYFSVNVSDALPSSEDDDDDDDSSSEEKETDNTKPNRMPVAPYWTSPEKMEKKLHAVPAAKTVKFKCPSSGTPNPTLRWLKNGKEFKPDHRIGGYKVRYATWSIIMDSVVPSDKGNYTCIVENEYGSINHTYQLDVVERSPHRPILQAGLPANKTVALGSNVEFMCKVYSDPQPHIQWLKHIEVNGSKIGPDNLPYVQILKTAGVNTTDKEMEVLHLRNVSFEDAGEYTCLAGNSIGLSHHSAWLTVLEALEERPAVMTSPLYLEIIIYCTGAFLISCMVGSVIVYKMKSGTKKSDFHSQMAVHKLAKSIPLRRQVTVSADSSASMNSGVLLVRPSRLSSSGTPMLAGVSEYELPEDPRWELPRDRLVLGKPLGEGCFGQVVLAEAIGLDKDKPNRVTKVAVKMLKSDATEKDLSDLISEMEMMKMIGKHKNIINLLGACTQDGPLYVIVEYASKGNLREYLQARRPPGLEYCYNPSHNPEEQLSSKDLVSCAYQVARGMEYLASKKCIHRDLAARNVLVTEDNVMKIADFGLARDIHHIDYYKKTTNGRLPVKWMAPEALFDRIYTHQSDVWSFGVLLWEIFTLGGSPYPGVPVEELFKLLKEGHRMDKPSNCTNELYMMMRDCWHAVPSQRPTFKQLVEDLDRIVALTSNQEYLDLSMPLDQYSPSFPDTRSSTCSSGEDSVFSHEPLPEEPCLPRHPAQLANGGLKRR
von Hippel-Lindau disease tumor suppressor/Fibroblast growth factor receptor 1 (Homo sapiens), sequence (P40337 whole entry partner): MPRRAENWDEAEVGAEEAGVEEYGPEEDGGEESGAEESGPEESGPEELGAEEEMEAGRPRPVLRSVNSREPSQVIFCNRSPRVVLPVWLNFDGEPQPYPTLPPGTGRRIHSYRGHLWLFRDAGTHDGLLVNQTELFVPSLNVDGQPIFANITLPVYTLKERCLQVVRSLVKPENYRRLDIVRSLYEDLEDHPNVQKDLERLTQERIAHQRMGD
Protein cereblon/Fibroblast growth factor receptor 2 (Homo sapiens), sequence (P21802 22-821 limits assumed): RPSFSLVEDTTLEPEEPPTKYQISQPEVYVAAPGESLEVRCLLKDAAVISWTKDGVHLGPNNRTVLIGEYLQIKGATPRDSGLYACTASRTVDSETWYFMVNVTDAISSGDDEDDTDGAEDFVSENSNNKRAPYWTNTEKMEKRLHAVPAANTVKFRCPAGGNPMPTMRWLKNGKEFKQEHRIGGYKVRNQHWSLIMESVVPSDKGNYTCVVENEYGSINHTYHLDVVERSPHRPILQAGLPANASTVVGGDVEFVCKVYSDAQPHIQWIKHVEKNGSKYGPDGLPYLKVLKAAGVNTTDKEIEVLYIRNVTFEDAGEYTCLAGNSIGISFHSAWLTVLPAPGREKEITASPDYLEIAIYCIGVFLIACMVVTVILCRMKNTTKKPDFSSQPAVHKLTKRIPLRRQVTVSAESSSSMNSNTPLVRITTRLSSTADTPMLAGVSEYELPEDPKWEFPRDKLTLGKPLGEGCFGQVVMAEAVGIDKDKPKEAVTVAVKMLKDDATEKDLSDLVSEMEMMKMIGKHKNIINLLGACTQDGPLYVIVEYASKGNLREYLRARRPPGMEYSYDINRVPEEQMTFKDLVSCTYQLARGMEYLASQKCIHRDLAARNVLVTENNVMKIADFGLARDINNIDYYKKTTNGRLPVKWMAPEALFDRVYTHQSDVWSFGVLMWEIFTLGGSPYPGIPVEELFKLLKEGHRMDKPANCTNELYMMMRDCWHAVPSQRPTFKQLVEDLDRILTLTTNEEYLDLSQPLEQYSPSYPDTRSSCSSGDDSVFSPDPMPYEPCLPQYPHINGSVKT
Protein cereblon/Fibroblast growth factor receptor 2 (Homo sapiens), sequence (Q96SW2 whole entry partner): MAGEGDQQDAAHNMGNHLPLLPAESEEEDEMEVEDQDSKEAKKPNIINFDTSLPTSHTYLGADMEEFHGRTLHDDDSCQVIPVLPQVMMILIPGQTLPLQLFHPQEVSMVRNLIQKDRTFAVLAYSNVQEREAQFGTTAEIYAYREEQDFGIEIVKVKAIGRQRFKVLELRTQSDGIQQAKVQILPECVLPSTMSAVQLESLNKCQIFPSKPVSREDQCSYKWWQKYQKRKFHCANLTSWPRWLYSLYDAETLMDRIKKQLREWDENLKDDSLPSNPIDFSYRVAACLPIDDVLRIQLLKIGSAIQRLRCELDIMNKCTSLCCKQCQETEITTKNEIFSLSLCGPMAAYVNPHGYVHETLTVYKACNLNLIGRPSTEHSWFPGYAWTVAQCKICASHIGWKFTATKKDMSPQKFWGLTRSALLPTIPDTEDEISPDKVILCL
T1 sequence (P11362 whole entry, looked up): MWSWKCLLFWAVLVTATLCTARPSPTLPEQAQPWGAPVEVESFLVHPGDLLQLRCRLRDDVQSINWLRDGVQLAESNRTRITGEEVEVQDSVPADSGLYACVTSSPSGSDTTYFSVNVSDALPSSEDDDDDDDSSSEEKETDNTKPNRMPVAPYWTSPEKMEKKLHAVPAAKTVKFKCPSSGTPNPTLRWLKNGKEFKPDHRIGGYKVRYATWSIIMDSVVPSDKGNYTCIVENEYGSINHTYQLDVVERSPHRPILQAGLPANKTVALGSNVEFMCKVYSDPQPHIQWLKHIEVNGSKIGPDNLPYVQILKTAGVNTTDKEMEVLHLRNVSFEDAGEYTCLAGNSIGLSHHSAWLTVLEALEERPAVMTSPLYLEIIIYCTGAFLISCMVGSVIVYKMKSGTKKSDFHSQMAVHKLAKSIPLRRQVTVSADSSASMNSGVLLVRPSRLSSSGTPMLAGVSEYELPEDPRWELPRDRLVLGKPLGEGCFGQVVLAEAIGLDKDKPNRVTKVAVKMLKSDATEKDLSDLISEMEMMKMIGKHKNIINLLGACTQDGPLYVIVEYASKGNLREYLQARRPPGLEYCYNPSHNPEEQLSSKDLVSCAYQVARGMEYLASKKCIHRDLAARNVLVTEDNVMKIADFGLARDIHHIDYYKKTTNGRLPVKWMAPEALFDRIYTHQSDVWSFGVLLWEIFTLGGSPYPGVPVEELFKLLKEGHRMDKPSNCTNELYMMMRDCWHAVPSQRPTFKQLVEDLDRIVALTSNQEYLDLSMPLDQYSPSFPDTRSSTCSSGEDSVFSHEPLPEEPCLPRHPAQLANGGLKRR
T1 sequence (Q96SW2 whole entry, looked up): as the sequence (Q96SW2 whole entry partner) above
Protein cereblon/Fibroblast growth factor receptor 4 (Homo sapiens), sequence (P22455 whole entry, looked up): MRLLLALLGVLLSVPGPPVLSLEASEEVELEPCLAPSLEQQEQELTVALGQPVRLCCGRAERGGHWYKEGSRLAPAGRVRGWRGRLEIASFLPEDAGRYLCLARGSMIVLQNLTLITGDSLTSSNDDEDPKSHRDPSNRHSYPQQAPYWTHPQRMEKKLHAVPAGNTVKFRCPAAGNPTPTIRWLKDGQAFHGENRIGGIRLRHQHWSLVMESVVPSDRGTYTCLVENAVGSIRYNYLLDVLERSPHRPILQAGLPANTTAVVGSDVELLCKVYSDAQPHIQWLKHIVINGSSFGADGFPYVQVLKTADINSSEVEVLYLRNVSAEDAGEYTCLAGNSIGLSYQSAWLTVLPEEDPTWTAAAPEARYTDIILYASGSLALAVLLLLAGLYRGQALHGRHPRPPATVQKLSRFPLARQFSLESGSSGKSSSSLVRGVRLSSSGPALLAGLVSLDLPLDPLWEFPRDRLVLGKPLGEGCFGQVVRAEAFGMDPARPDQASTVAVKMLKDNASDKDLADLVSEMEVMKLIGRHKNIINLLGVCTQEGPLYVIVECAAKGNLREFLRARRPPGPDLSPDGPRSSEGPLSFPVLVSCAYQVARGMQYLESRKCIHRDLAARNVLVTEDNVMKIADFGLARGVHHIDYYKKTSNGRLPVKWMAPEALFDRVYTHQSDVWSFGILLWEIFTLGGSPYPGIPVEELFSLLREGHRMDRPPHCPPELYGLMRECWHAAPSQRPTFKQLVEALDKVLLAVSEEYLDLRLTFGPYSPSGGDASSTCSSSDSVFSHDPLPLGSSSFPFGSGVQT
Protein cereblon/Fibroblast growth factor receptor 4 (Homo sapiens), sequence (Q96SW2 whole entry, looked up): as the sequence (Q96SW2 whole entry partner) above
Protein cereblon/Fibroblast growth factor receptor 3 (Homo sapiens), sequence (P22607 whole entry, looked up): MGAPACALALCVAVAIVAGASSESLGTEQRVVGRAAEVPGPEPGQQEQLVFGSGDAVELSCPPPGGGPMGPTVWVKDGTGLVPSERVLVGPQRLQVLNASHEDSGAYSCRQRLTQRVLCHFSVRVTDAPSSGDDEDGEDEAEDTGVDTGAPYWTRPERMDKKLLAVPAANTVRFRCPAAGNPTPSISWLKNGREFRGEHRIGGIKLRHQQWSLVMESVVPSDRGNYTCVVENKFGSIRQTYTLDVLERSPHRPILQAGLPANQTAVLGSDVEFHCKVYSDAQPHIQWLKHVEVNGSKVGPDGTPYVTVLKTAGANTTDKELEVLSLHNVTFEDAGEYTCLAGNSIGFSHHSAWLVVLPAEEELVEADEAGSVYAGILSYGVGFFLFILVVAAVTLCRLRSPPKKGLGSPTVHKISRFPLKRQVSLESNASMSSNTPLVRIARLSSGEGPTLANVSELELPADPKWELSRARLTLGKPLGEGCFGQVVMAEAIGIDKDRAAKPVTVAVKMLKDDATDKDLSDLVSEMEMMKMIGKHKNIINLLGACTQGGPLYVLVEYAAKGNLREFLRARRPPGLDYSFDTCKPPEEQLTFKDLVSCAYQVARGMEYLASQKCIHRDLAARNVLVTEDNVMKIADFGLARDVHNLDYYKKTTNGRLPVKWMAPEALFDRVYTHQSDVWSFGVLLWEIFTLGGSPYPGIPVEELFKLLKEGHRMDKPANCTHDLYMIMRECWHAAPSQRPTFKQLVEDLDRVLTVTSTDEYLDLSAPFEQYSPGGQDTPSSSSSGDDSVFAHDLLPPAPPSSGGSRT
Protein cereblon/Fibroblast growth factor receptor 3 (Homo sapiens), sequence (Q96SW2 whole entry, looked up): as the sequence (Q96SW2 whole entry partner) above

SMILES: COc1cc(CCc2cc(NC(=O)c3ccc(N4C[C@@H](C)N(CC(=O)N/N=C/c5ccc(OCCOCCOCCOCC(=O)N[C@H](C(=O)N6C[C@H](O)C[C@H]6C(=O)N[C@@H](C)c6ccc(-c7scnc7C)cc6)C(C)(C)C)cc5)[C@@H](C)C4)cc3)n[nH]2)cc(OC)c1
- Activity [1]: Active

SMILES: COc1cc(CCc2cc(NC(=O)c3ccc(N4C[C@@H](C)N(CC(=O)NCCc5ccc(OCC(=O)N[C@H](C(=O)N6C[C@H](O)C[C@H]6C(=O)N[C@@H](C)c6ccc(-c7scnc7C)cc6)C(C)(C)C)cc5)[C@@H](C)C4)cc3)n[nH]2)cc(OC)c1
- IC50 [3]: 160 nM
- IC50 [4]: 139 nM

SMILES: COc1cc(CCc2cc(NC(=O)c3ccc(N4C[C@@H](C)N(CC(=O)NCCc5ccc(OCCOCCOCC(=O)NC#Cc6cccc7c6CN(C6CCC(=O)NC6=O)C7=O)cc5)[C@@H](C)C4)cc3)n[nH]2)cc(OC)c1 (stereo not given in full)
- Activity [5]: Active
- Activity [9]: inactive
- Activity [10]: inactive

SMILES: COc1cc(CCc2cc(NC(=O)c3ccc(N4C[C@@H](C)N(CC(=O)N/N=C\c5ccc(OCCCCC(=O)N[C@H](C(=O)N6C[C@H](O)C[C@H]6C(=O)N[C@@H](C)c6ccc(-c7scnc7C)cc6)C(C)(C)C)cc5)[C@@H](C)C4)cc3)n[nH]2)cc(OC)c1
- Activity [1]: Active

SMILES: COc1cc(CCc2cc(NC(=O)c3ccc(N4C[C@@H](C)N(CC(=O)N/N=C/c5ccc(OCCOCCOCCOCCOCC(=O)N[C@H](C(=O)N6C[C@H](O)C[C@H]6C(=O)N[C@@H](C)c6ccc(-c7scnc7C)cc6)C(C)(C)C)cc5)[C@@H](C)C4)cc3)n[nH]2)cc(OC)c1
- Activity [1]: Active

SMILES: COc1cc(CCc2cc(NC(=O)c3ccc(N4C[C@@H](C)N(CC(=O)N/N=C\c5ccc(OCC(=O)N[C@H](C(=O)N6C[C@H](O)C[C@H]6C(=O)N[C@@H](C)c6ccc(-c7scnc7C)cc6)C(C)(C)C)cc5)[C@@H](C)C4)cc3)n[nH]2)cc(OC)c1
- Activity [1]: Active

The next lines start with results.

- Activity [2]: Active
SMILES: COc1cc(CCc2cc(NC(=O)c3ccc(N4C[C@@H](C)N(CC(=O)N/N=C/c5ccc(OCCOCCOCC(=O)NCC#Cc6cccc7c6CN(C6CCC(=O)NC6=O)C7=O)cc5)[C@@H](C)C4)cc3)n[nH]2)cc(OC)c1 (stereo not given in full)

- IC50 [3]: 4 nM
SMILES: COc1cc(CCc2cc(NC(=O)c3ccc(N4C[C@@H](C)N[C@@H](C)C4)cc3)n[nH]2)cc(OC)c1 [FEXAGRATINIB]
- IC50 [4]: 14 nM

- Activity [5]: Active
- Activity [6]: inactive
- Activity [7]: inactive
- Activity [8]: inactive
SMILES: COc1cc(CCc2cc(NC(=O)c3ccc(N4C[C@@H](C)N(CC(=O)N/N=C/c5ccc(OCCOCCOCCOCC(=O)NCC#Cc6cccc7c6CN(C6CCC(=O)NC6=O)C7=O)cc5)[C@@H](C)C4)cc3)n[nH]2)cc(OC)c1 (stereo not given in full)

- Activity [5]: Active
- Activity [6]: inactive
- Activity [7]: inactive
- Activity [8]: inactive
SMILES: COc1cc(CCc2cc(NC(=O)c3ccc(N4C[C@@H](C)N(CC(=O)N/N=C/c5ccc(OCCOCCOCCOCCOCCOCC(=O)NCC#Cc6cccc7c6CN(C6CCC(=O)NC6=O)C7=O)cc5)[C@@H](C)C4)cc3)n[nH]2)cc(OC)c1 (stereo not given in full)

- Activity [5]: Active
- Activity [6]: inactive
- Activity [7]: inactive
- Activity [8]: inactive
SMILES: COc1cc(CCc2cc(NC(=O)c3ccc(N4C[C@@H](C)N(CC(=O)N/N=C/c5ccc(OCCOCC(=O)NCC#Cc6cccc7c6CN(C6CCC(=O)NC6=O)C7=O)cc5)[C@@H](C)C4)cc3)n[nH]2)cc(OC)c1 (stereo not given in full)

- Activity [2]: Active
SMILES: COc1cc(CCc2cc(NC(=O)c3ccc(N4C[C@@H](C)N(CC(=O)N/N=C/c5ccc(OCCCCC(=O)NCC#Cc6cccc7c6CN(C6CCC(=O)NC6=O)C7=O)cc5)[C@@H](C)C4)cc3)n[nH]2)cc(OC)c1 (stereo not given in full)
